Common to all, as to experiment: NCI-60 cell line screen, 48 h
The test system of assay [1] is K562.
Assay [2] relates to HCT-15.
In assay [3] the test system is HT-29.
The test system of assay [4] is RXF 393.
Assay [5] has as its system TK-10.
Assay [6] concerns OVCAR-4.
Assay [7] concerns IGROV-1.
For assay [8], the system named is PC-3.
Assay [9] relates to SNB-19.
In assay [10] the test system is UACC-257.
In assay [11] the test system is CCRF-CEM.
Assay [12] has as its system ACHN.
Assay [13] deals with OVCAR-3.
Assay [14] concerns SF-539.
Assay [15] has as its system OVCAR-8.
In assay [16] the test system is SNB-75.
Assay [17] has as its system SW-620.
In assay [18] the test system is BT-549.
The subject of assay [19] is NCI-H522.
The subject of assay [20] is NCI-H226.

SMILES strings stand for the structures.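 Grown in 96-well plates, cells were treated for 48 hours with each compound at five concentrations. Insufficient inhibition: endpoint recorded as highest concentration tested. At the GI50, growth is halved.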 Activity calls are given as the source filed them. Cut-off read from the data, not from the text of the source: active = GI50 up to about 1.1 µM and inactive = higher.

Data on ten molecules can be found in ChEMBL document CHEMBL1201862, “PubChem BioAssay data set” (2004).

As to `CNc1nc2c(C)ccc3nc(N(C)C)nc-3c2n1C`, the GI50 is > 10 µM (inactive) in assay [1]; greater than 10 µM in [2]; > 10 µM (inactive) in assay [3]; > 10 µM (inactive) in assay [4]; > 10 µM (inactive) in assay [5]; > 10 µM (inactive) in assay [6]. Moreover, the GI50 in assay [7], in assay [8], in assay [9], in assay [10], in assay [11] and in [12] was > 10 µM (inactive) throughout. In addition, the GI50 in assay [13], in assay [14], in [15], in [16], in assay [17] and in assay [18] was > 10 µM (inactive) each time. The GI50 in [19] and in [20] was > 10 µM (inactive) in each case.
For the molecule `O=C(N/N=C1/C(=O)c2c3ccccc3cc3cccc1c23)c1ccccc1`, the GI50 was > 59.6 µM (inactive) in [1]; 49.1 µM in assay [2]; 30.2 µM (inactive) in assay [3]; 22.1 µM (inactive) in [4]; 22.1 µM (inactive) in assay [5]; 20.8 µM (inactive) in assay [6]. The GI50 in assay [7] is 25.4 µM (inactive); in assay [8] it was 26.7 µM (inactive); in assay [9], 35.8 µM (inactive); in [10], > 62.1 µM (inactive); in assay [11] it was > 53.1 µM (inactive); in assay [12], 29.1 µM (inactive). Also, the GI50 in [13] is 42.3 µM (inactive); in [14], 37.1 µM (inactive); in assay [15], 31.1 µM (inactive); in [16], 27.2 µM (inactive); in assay [17], > 100 µM (inactive); in assay [18] it was > 100 µM (inactive). Besides, the GI50 in assay [19] was 32.7 µM (inactive); in [20], > 43.8 µM (inactive).
On to `CCCCCCCCCCCCCCCCCCOCC(O)COP(=O)(O)OCC1OC(n2cc(F)c(=O)[nH]c2=O)CC1O` (stereo not given), for which the GI50 in [1] is 10.4 µM (inactive); in assay [2], 10.8 µM; in [3] it was 10.5 µM (inactive); in [4] it was 11.9 µM (inactive); in assay [5] it was 8.93 µM (inactive); in assay [6], 15.1 µM (inactive). Also, the GI50 in assay [7] is 11.4 µM (inactive); in assay [8] it was 3.07 µM (inactive); in assay [9] it was 10.3 µM (inactive); in [10], 12.8 µM (inactive); in [11], 0.318 µM (active); in assay [12], 0.38 µM (active). Moreover, the GI50 was 13.7 µM (inactive) in assay [13]; 0.0721 µM (active) in assay [14]; 1.64 µM (inactive) in [15]; 2.89 µM (inactive) in [16]; 13.7 µM (inactive) in assay [17]; 13.7 µM (inactive) in [18]. Moreover, the GI50 in assay [19] is 11.9 µM (inactive); in assay [20], > 35.6 µM (inactive).
For the molecule `NNC(=O)CSc1nc2ccccc2c(=O)n1N`, the GI50 in [1] is > 100 µM (inactive); in assay [2] it was greater than 100 µM; in assay [3], 22.2 µM (inactive); in assay [4], 31.7 µM (inactive); in assay [5], 16.3 µM (inactive); in assay [6] it was > 100 µM (inactive). The GI50 was > 100 µM (inactive) in assay [7]; > 100 µM (inactive) in [8]; 14.9 µM (inactive) in assay [9]; > 100 µM (inactive) in assay [10]; > 100 µM (inactive) in [11]; 26.4 µM (inactive) in assay [12]. The GI50 in assay [13] is > 100 µM (inactive); in [14], 31 µM (inactive); in assay [15] it was 31.9 µM (inactive); in [16], 13.5 µM (inactive); in assay [17] it was > 100 µM (inactive); in assay [18], 42.1 µM (inactive). In addition, the GI50 in assay [19] is 58.7 µM (inactive); in [20], > 100 µM (inactive).
Turning to `COC(=O)C([C@H]1CC[C@H](OCc2ccccc2)[C@@]1(O)COCc1ccccc1)C(C)(O)CCc1ccccc1` (stereo not given in full), the GI50 is 8.15 µM (inactive) in [1]; 13.5 µM in [2]; 4.55 µM (inactive) in assay [3]; 10.4 µM (inactive) in assay [4]; 17.1 µM (inactive) in assay [5]; 17.1 µM (inactive) in [6]. Besides, the GI50 is 10.9 µM (inactive) in assay [7]; 4.13 µM (inactive) in [8]; 26.5 µM (inactive) in assay [9]; 13.8 µM (inactive) in [10]; 6.92 µM (inactive) in assay [11]; 12.5 µM (inactive) in [12]. Moreover, the GI50 was 12.7 µM (inactive) in [13]; 15.4 µM (inactive) in assay [14]; 13.4 µM (inactive) in [15]; 2.07 µM (inactive) in assay [16]; 13.5 µM (inactive) in assay [17]; 16.7 µM (inactive) in assay [18]. Also, the GI50 in assay [19] was 8.07 µM (inactive); in assay [20], 11.8 µM (inactive).
For `CC(C)(C)c1cc(C(=O)/C=C/c2cc[nH]n2)cc(C(C)(C)C)c1O`, the GI50 is 3.08 µM (inactive) in assay [1]; 2.11 µM in assay [2]; 2.61 µM (inactive) in [3]; 1.69 µM (inactive) in [4]; 1.54 µM (inactive) in [5]; 6.4 µM (inactive) in assay [6]. Moreover, the GI50 was 1.93 µM (inactive) in assay [7]; 2.08 µM (inactive) in [8]; 3.87 µM (inactive) in [9]; 3.24 µM (inactive) in assay [10]; 2.07 µM (inactive) in assay [11]; 1.62 µM (inactive) in assay [12]. Further, the GI50 in assay [13] was 2.75 µM (inactive); in assay [14], 3.85 µM (inactive); in assay [15], 2.39 µM (inactive); in assay [16], 4.61 µM (inactive); in assay [17] it was 2.33 µM (inactive); in assay [18], 4.83 µM (inactive). Further, the GI50 in assay [19] was 1.43 µM (inactive); in [20], 5.73 µM (inactive).
On to `CC(C)NCCCNc1c2ccccc2nc2cccc([N+](=O)[O-])c12`, for which the GI50 is 0.00262 µM (active) in [1]; 0.0504 µM in [2]; 0.00202 µM (active) in [3]; 0.00427 µM (active) in assay [4]; 0.0373 µM (active) in assay [5]; 0.00438 µM (active) in assay [6]. Further, the GI50 in assay [7] was < 0.001 µM (active); in assay [8] it was 0.00745 µM (active); in assay [9], 0.0499 µM (active); in assay [10], 0.0445 µM (active); in [11], 0.0142 µM (active); in [12], 0.0136 µM (active). Also, the GI50 is 0.00834 µM (active) in [13]; 0.0484 µM (active) in [14]; 0.00566 µM (active) in [15]; 0.0308 µM (active) in assay [16]; 0.00514 µM (active) in assay [17]; 0.0421 µM (active) in assay [18]. For the same molecule, the GI50 is 0.00161 µM (active) in assay [19] and 0.0219 µM (active) in assay [20].
For `O=C1C2C3C4C1C1C2[C@H](OCc2ccccc2)C3C1[C@H]4OCc1ccccc1` (stereo not given in full), the GI50 is > 100 µM (inactive) in assay [1]; 22.2 µM in assay [2]; 15.2 µM (inactive) in assay [3]; 31.8 µM (inactive) in [4]; > 100 µM (inactive) in [5]; 70.3 µM (inactive) in assay [6]. Further, the GI50 in [7] was > 100 µM (inactive); in [8] it was 36.1 µM (inactive); in [9] it was 67.9 µM (inactive); in assay [10], 33 µM (inactive); in [11], > 100 µM (inactive); in assay [12], 47.6 µM (inactive). Also, the GI50 in assay [13] was 60.5 µM (inactive); in assay [14] it was 75.2 µM (inactive); in [15], > 100 µM (inactive); in assay [16], 38.9 µM (inactive); in [17], 46 µM (inactive); in assay [18], > 100 µM (inactive). The figures for the GI50 in assay [19] and in assay [20] were 11.2 µM (inactive) and 76.9 µM (inactive), respectively.
As for `CN1CCN(CCCCN2c3ccccc3Sc3cc(N=[N+]=[N-])ccc32)CC1`, the GI50 in assay [1] was 1.38 µM (inactive); in assay [2] it was 2.28 µM; in assay [3], 1.61 µM (inactive); in assay [4], 2.7 µM (inactive); in assay [5] it was 1.91 µM (inactive); in assay [6], 2.88 µM (inactive). Also, the GI50 in assay [7] was 1.93 µM (inactive); in assay [8] it was 1.82 µM (inactive); in assay [9] it was 3.62 µM (inactive); in assay [10] it was 1.99 µM (inactive); in assay [11] it was 2.14 µM (inactive); in assay [12] it was 2.15 µM (inactive). The GI50 in assay [13] is 2.55 µM (inactive); in [14], 3.31 µM (inactive); in assay [15], 1.82 µM (inactive); in assay [16] it was 3.39 µM (inactive); in assay [17], 1.98 µM (inactive); in assay [18], 7.76 µM (inactive). Also, the results for the GI50 in assay [19] and in assay [20] were 1.7 µM (inactive) and 5.93 µM (inactive), respectively.
As for `COCN1C(=O)[C@@H]2CCCN2C(=O)c2ccc([N+](=O)[O-])cc21`, the GI50 in assay [1] was > 100 µM (inactive); in [2], greater than 100 µM; in assay [3] it was > 100 µM (inactive); in [4] it was > 100 µM (inactive); in assay [5], > 100 µM (inactive); in [6], > 100 µM (inactive). Besides, the GI50 in assay [7], in [8], in assay [9], in assay [10], in assay [11] and in assay [12] was > 100 µM (inactive) throughout. In addition, the GI50 in assay [13], in assay [14], in assay [15], in assay [16], in assay [17] and in [18] was > 100 µM (inactive) throughout. In addition, the GI50 in [19] and in [20] was > 100 µM (inactive) each time.
